Columns and labels:
[1] = molecular target: T1, protein-protein interaction between hSOS1 and hKRASG12C (Homo sapiens, UniProt Q07889); experiment: KRAS-SOS1 interaction assay (HTRF); type: binding; conditions: GST-hSOS1 564-1049aa, HIS-hKRASG12C, read-out: KRAS-SOS1 Interaction inhibition IC50
T1 construct: GST-hSOS1, 564-1049aa expressed and purified in-house
T1 sequence (Q07889 564-1049): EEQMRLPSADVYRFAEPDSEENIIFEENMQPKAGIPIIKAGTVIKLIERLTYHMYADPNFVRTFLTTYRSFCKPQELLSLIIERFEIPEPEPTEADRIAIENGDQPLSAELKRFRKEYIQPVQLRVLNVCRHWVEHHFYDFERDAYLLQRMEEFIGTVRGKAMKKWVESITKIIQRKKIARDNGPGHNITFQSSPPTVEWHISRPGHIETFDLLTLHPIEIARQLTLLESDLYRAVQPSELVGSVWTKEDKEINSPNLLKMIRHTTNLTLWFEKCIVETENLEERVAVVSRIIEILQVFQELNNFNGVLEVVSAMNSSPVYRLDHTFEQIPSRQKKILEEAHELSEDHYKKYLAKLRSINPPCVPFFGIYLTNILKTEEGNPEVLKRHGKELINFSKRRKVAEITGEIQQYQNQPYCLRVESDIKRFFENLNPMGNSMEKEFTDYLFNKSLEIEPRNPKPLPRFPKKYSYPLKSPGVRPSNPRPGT
Description: Interaction assay was conducted to evaluate the ability of the compounds to disrupt the protein-protein interactions between hSOS1 and hKRASG12C. Inhibitory effect of compounds on GST-hSOS1, 564-1049aa expressed and purified in-house and HIS-hKRASG12C (R06-32DH, SignalChem) interaction was assessed using HTRF detection technology in biochemical assay. Compounds were pre-incubated with 10-50 nM working solution of hSOS1 per well of a 384 well plate (Perkin Elmer, Cat #6007290) for 10 min at 20° C. in the assay buffer containing 5 mM HEPES, pH 7.4, 150 mM NaCl, 10 mM EDTA, 1 mM DTT, 0.05% BSA fraction V and 0.0025% Igepal. Reaction was initiated by adding 100-300 nM working solution of hKRASG12C in assay buffer. Total assay volume was 15 μL. Reaction was continued for 30-60 min at 20° C. Then detection solution containing MAb Anti-GST-d2 (#61GSTDLA, Cisbio BioAssays) and MAb Anti-HIS-Tb (#61HISTLA, Cisbio BioAssays), all prepared in HTRF detection buffer (#61DB10RDF, Cisbio BioAssays) was added and further incubated for 30-60 min at 20° C. HTRF signal was recorded in PHERAStar microplate reader. Ratio of signal obtained at 665 nm and 620 nm was used to compute the percent inhibition of compound utilizing the following formula: […]

[2] = molecular target: T2, nucleotide exchange on hKRASG12C mediated by hSOS1 (Homo sapiens, UniProt Q07889); experiment: Guanine nucleotide exchange assay (GNEA, HTRF); type: biochemical; conditions: HIS-hSOS1 564-1049aa mediated GTP loading onto GST-hKRASG12C 1-169aa, read-out: Guanine nucleotide exchange inhibition IC50
T2 construct: HIS-hSOS1, 564-1049aa mediated GTP loading onto GST-hKRASG12C; His (N); made in house
T2 sequence (Q07889 564-1049): T1 sequence (Q07889 564-1049)
Description: Example-154: Guanine nucleotide exchange assay (GNEA) GNEA assay was conducted to evaluate the effects of compounds on the nucleotide exchange on hKRASG12C mediated by hSOS1. Inhibitory effect of compounds on HIS-hSOS1, 564-1049aa mediated GTP loading onto GST-hKRASG12C, 1-169aa both expressed and purified in-house was assessed using HTRF detection technology in biochemical assay. Compounds were pre-incubated with hSOS1 working solution containing 10-50 nM hSOS1 and 200 nM EDA-GTP-DY-647P1 (Custom manufactured, Jena Biosciences) per well of a 384 well plate (Perkin Elmer, Cat #6007290) for 10 min at 20° C. in the assay buffer containing 10 mM HEPES, pH 7.4, 150 mM NaCl, 5 mM MgCl2, 1 mM DTT, 0.05% BSA fraction V and 0.0025% Igepal. Reaction was initiated by adding working solution of hKRASG12C containing 25-125 nM hKRASG12C and MAb Anti-GST-Tb (#61GSTTLA, Cisbio BioAssays) in assay buffer. Total assay volume was 15 μL. Reaction was continued for 30-60 min at 20° C. HTRF signal was recorded in PHERAStar microplate reader. Ratio of signal obtained at 665 nm and 620 nm was used to compute the percent inhibition of compound as follows.

[3] = tested on: pERK after EGF stimulation in DLD1 cells; experiment: ERK phosphorylation assay (alphascreen pERK); type: cell-based; conditions: Homo sapiens, DLD-1, 2 h compound, 200 ng/ml hEGF for 5 minutes, read-out: ERK phosphorylation inhibition IC50
Description: Compounds were tested for their ability to inhibit pERK after EGF stimulation in DLD1 cells. Cells were seeded at 0.2 million cells per well in 96 well cell binding tissue culture plate in 100 μL complete media and were allowed to settle overnight (16 to 20 h). On the following day, cells were treated with various concentrations of test compounds for 2 h followed by stimulation with 200 ng/ml hEGF (diluted in PBS) for 5 minutes. Cells were then washed once with PBS and lysed in freshly prepared lysis buffer (provided with alphascreen surefire ERK1/2 p-T202/Y204 assay kit, cat no: TGRESB10K, Perkin Elmer). Lysis was carried out in plate shaker for 10-15 mins. Lysate was transferred to […] white opti-plate (Perkin Elmer) and alphascreen for pERK was carried out as per manufacturer's instructions. Plate was read after 2 h incubation in plate shaker at […] 300 RPM, 25-28° C. The difference between the unstimulated and stimulated Vehicle control is considered as 100% ERK phosphorylation, and % inhibition of compounds is calculated accordingly.

SMILES | IC50 [1] | IC50 [2] | IC50 [3]
CO[C@]1(C)C(=O)N(C)c2cc3nc(C)nc(N[C@H](C)c4cccc(C(F)(F)C(C)(C)O)c4F)c3cc21 (racemic) [Compound 96a, (S/R)-4-(((R)-1-(3-(1,1-difluoro-2-hydroxy-2-methylpropyl)-2-fluorophenyl)ethyl)amino)-6-methoxy-2,6,8-trimethyl-6,8-dihydro-7H-pyrrolo[3,2-g]quinazolin-7-one] | 11 to 25 nM | 31 to 130 nM | 1 to 200 nM
COCC1(C)C(=O)N(C)c2cc3c(N[C@H](C)c4cccc(C(F)(F)C(C)(C)O)c4F)nc(C)nc3cc21 (mixture of isomers) [Compound 98, (R&S)-4-(((R)-1-(3-(1,1-difluoro-2-hydroxy-2-methylpropyl)-2-fluorophenyl)ethyl)amino)-8-(methoxymethyl)-2,6,8-trimethyl-6,8-dihydro-7H-pyrrolo[2,3-g]quinazolin-7-one] | 11 to 25 nM | 1 to 30 nM | 1 to 200 nM
COC[C@@]1(C)C(=O)N(C)c2cc3c(N[C@H](C)c4cccc(C(F)(F)C(C)(C)O)c4F)nc(C)nc3cc21 (racemic) [Compound 98b, (S/R)-4-(((R)-1-(3-(1,1-difluoro-2-hydroxy-2-methylpropyl)-2-fluorophenyl)ethyl)amino)-8-(methoxymethyl)-2,6,8-trimethyl-6,8-dihydro-7H-pyrrolo[2,3-g]quinazolin-7-one] | 11 to 25 nM | 31 to 130 nM | 1 to 200 nM
Cc1nc(N[C@H](C)c2cccc(C(F)(F)C(C)(C)O)c2F)c2cc3c(cc2n1)C(C)C(=O)N3C (mixture of isomers) [Compound 99, (R&S)-4-(((R)-1-(3-(1,1-difluoro-2-hydroxy-2-methylpropyl)-2-fluorophenyl)ethyl)amino)-2,6,8-trimethyl-6,8-dihydro-7H-pyrrolo[2,3-g]quinazolin-7-one] | 1 to 10 nM | 1 to 30 nM | 1 to 200 nM
CCO[C@]1(C)C(=O)N(C)c2cc3c(N[C@H](C)c4cccc(C(F)(F)C(C)(C)O)c4F)nc(C)nc3cc21 (racemic) [Compound 121b, (S/R)-4-(((R)-1-(3-(1,1-difluoro-2-hydroxy-2-methylpropyl)-2-fluorophenyl)ethyl)amino)-8-ethoxy-2,6,8-trimethyl-6,8-dihydro-7H-pyrrolo[2,3-g]quinazolin-7-one] | 1 to 10 nM | 1 to 30 nM | 1 to 200 nM
CO[C@]1(C)C(=O)N(C)c2cc3c(N[C@H](C)c4cccc(C(F)(F)[C@](C)(O)CN(C)C)c4F)nc(C)nc3cc21 (racemic) [Compound 135a, (S/R)-4-(((R)-1-(3-((S/R)-3-(dimethylamino)-1,1-difluoro-2-hydroxy-2-methylpropyl)-2-fluorophenyl)ethyl)amino)-8-methoxy-2,6,8-trimethyl-6,8-dihydro-7H-pyrrolo[2,3-g]quinazolin-7-one] | 1 to 10 nM | 1 to 30 nM | 1 to 200 nM
CO[C@]1(C)C(=O)N(C)c2cc3c(N[C@H](C)c4cccc(C(F)(F)[C@@](C)(O)CN(C)C)c4F)nc(C)nc3cc21 (racemic) [Compound 135b, (S/R)-4-(((R)-1-(3-((R/S)-3-(dimethylamino)-1,1-difluoro-2-hydroxy-2-methylpropyl)-2-fluorophenyl)ethyl)amino)-8-methoxy-2,6,8-trimethyl-6,8-dihydro-7H-pyrrolo[2,3-g]quinazolin-7-one] | 1 to 10 nM | 31 to 130 nM | 1 to 200 nM
Cc1nc(N[C@H](C)c2cccc(C(F)(F)[C@@](C)(O)CO)c2F)c2cc3c(cc2n1)OC(C)(C)C(=O)N3C (single isomer, unassigned) [Compound 23a, 4-(((R/S)-1-(3-((S/R)-1,1-difluoro-2,3-dihydroxy-2-methylpropyl)-2-fluorophenyl)ethyl)amino)-2,6,8,8-tetramethyl-6H-[1,4]oxazino[3,2-g]quinazolin-7(8H)-one] | 1 to 10 nM | 1 to 30 nM | 1 to 200 nM
Cc1nc(N[C@H](C)c2cccc(C(F)(F)C(C)(C)O)c2F)c2cc3c(cc2n1)N(C)C(C)C(=O)N3C (single isomer, unassigned) [Compound 27b] | 1 to 10 nM | 1 to 30 nM | 1 to 200 nM
Cc1nc(N[C@H](C)c2cccc(C(F)(F)CO)c2F)c2cc3c(cc2n1)O[C@@H](C)C(=O)N3C (single isomer, unassigned) [Compound 30a] | 1 to 10 nM | 1 to 30 nM | 1 to 200 nM
Cc1nc(N[C@H](C)c2cccc(C(F)(F)CO)c2F)c2cc3c(cc2n1)OC(C)C(=O)N3C (single isomer, unassigned) [Compound 30b] | 1 to 10 nM | 1 to 30 nM | 1 to 200 nM
Cc1nc(N[C@H](C)c2cccc(C(F)(F)C(C)(C)O)c2F)c2cc3c(cc2n1)O[C@@H](C)C(=O)N3C (single isomer, unassigned) [Compound 31a] | 1 to 10 nM | 1 to 30 nM | 1 to 200 nM
Cc1nc(N[C@H](C)c2cccc(C(F)(F)C(C)(C)O)c2F)c2cc3c(cc2n1)OC(C)C(=O)N3C (single isomer, unassigned) [Compound 31b] | 1 to 10 nM | 1 to 30 nM | 1 to 200 nM
Cc1nc(N[C@H](C)c2cccc(C(F)(F)C(C)(C)O)c2F)c2cc3c(cc2n1)OC(C(C)C)C(=O)N3C (single isomer, unassigned) [Compound 32b] | 1 to 10 nM | 1 to 30 nM | 1 to 200 nM
Cc1nc(N[C@H](C)c2cccc(C(F)(F)CO)c2F)c2cc3c(cc2n1)OC(C)CN3C (single isomer, unassigned) [Compound 36b] | 1 to 10 nM | 1 to 30 nM | 1 to 200 nM
COCC(C)(O)C(F)(F)c1cccc([C@@H](C)Nc2nc(C)nc3cc4c(cc23)N(C)C(=O)C(C)(C)O4)c1F (single isomer, unassigned) [Compound 53b] | 11 to 25 nM | 1 to 30 nM | 1 to 200 nM
Cc1nc(NC(C)c2cccc(C(F)(F)C(C)(C)O)c2)c2cc3c(cc2n1)C(C)(C)C(=O)N3C (single isomer, unassigned) [Compound 73, (R/S)-4-((1-(3-(1,1-difluoro-2-hydroxy-2-methylpropyl)phenyl)ethyl)amino)-2,6,8,8-tetramethyl-6,8-dihydro-7H-pyrrolo[2,3-g]quinazolin-7-one] | 1 to 10 nM | 1 to 30 nM | 1 to 200 nM

From US20260209247A1, “Substituted Tricyclic Compounds” (Lupin Limited, priority 2019, published 2026)
